Measurements published in patent publication US20060223996A1, “IL-12 modulatory compounds” (Synta Pharmaceuticals Corp., priority 2004, published 2006).

test system: adjuvant arthritis (AA); test: Treatment of adjuvant arthritis in rats; assay type: in vivo, rat; conditions: female Lewis rats, oral once a day for 7 days (day 7-14) after MTB induction, vs vehicle
Procedure: Treatment of adjuvant arthritis in rats: Adjuvant arthritis (AA) was induced in female Lewis rats by the intracutaneous injection (base of the tail) of 0.1 mL of a 10 mg/mL bacterial suspension made from ground, heat-killed Mycobacterium tuberculosis (MTB) H37Ra suspended in incomplete Freund's adjuvant. Rats were given Compound 1 or vehicle orally once a day for 7 days (day 7-14), starting day 7 after mycobacterium induction. The development of polyarthritis was monitored daily by macroscopic inspection and assignment of an arthritis index to each animal, during the critical period (days 10 to 25 post-immunization).
The intensity of polyarthritis was scored according to the following scheme: (a) Grade each paw from 0 to 3 based on erythema, swelling, and deformity of the joints: 0 for no erythema or swelling; 0.5 if swelling is detectable in at least one joint; 1 for mild swelling and erythema; 2 for swelling and erythema of both tarsus and carpus; and 3 for ankylosis and bony deformity. Maximum score for all 4 paws was thus 12. […]
Experiments with the AA model were repeated four times. […] The arthritis score used in this model was a reflection of the inflammatory state of the structures monitored and the results therefore show the ability of the test compound to provide relief for this aspect of the pathology.

`Cc1[nH]c2ccc(NC(=O)c3cc(OCCN4CCOCC4)nc(N4CCOCC4)n3)cc2c1C` [Compound 1, 2-Morpholin-4-yl-6-(2-morpholin-4-yl-ethoxy)-pyrimidine-4-carboxylic acid (2,3-dimethyl-1H-indol-5-yl)-amide] was tested, and the development of polyarthritis was “delayed the development of polyarthritis in a dose-dependent manner”.

same assay, conditions: female Lewis rats, oral once a day for 7 days (day 7-14) after MTB induction, vs vehicle; FIG. 1

In the case of `Cc1[nH]c2ccc(NC(=O)c3cc(OCCN4CCOCC4)nc(N4CCOCC4)n3)cc2c1C` [Compound 1, 2-Morpholin-4-yl-6-(2-morpholin-4-yl-ethoxy)-pyrimidine-4-carboxylic acid (2,3-dimethyl-1H-indol-5-yl)-amide], the “arthritic score (arthritic index)” value is reported as “reduced the arthritic score”.

test system: IL-12; test: Murine in vitro assay: IL-12 production in IFNγ/SAC-stimulated splenocytes of immunized Balb/c mice (ELISA); assay type: cell-based; conditions: Mus musculus, Splenocyte; Balb/c splenocytes stimulated with IFNγ and SAC
Procedure: Murine In Vitro Assay. Balb/c mice (Taconic, Germantown, N.Y.) were immunized with Mycobacterium tuberculosis H37Ra (Difco, Detroit, Mich.). The splenocytes were harvested 5 days and prepared in RPMI medium supplemented with 10% FCS and antibiotics in a flat bottom 96-well plate with 1×10^6 cells/well. The splenocytes were then stimulated with a combination of IFNγ (60 ng/mL) and SAC (0.025%) (LPS (20 μg/mL can be used instead of SAC)) in the presence of a test compound. Cell-free supernatants were taken 24 h later for the measurement of cytokines. The preparation of compound and the assessment of cell viability were carried out as described above. […] Mouse IL-12 p70, IL-10, IL-1β, and TNFα are measured using ELISA kits from Endogen, according to the manufacturer's instructions.

Work on `Cc1[nH]c2ccc(NC(=O)c3cc(OCCN)nc(N4CCOCC4)n3)cc2c1C` [Compound 273, 6-(2-Amino-ethoxy)-2-morpholin-4-yl-pyrimidine-4-carboxylic acid (2,3-dimethyl-1H-indol-5-yl)-amide] yielded an IC50 of 1250 nM.

test system: IL-12; test: Human in vitro assay: inhibition of IL-12 production in IFNγ/LPS- or IFNγ/SAC-stimulated human PBMC or THP-1 cells (ELISA); assay type: cell-based; conditions: read-out: IC50 Range (representative in vitro IC50 data)
In short: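 Sandwich ELISA for IL-12 (p70, p40) on supernatants collected 18 h after stimulation gave IC50 values; MTS monitored viability. THP-1 cells: IFNγ 100 U/mL priming 22 h, SAC 0.025%. PBMC: IFNγ 30 U/mL for 22 h plus LPS 1 μg/mL, or IFNγ 100 U/mL plus SAC 0.01%. Final DMSO 0.25%.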

`Cc1[nH]c2ccc(NC(=O)c3cc(OCCN4CCOCC4)nc(N4CCOCC4)n3)cc2c1C` [Compound 1, 2-Morpholin-4-yl-6-(2-morpholin-4-yl-ethoxy)-pyrimidine-4-carboxylic acid (2,3-dimethyl-1H-indol-5-yl)-amide] and `Cc1[nH]c2ccc(NC(=O)Nc3cc(OCCN4CCOCC4)nc(N4CCOCC4)n3)cc2c1C` [Compound 323, 1-(2,3-Dimethyl-1H-indol-5-yl)-3-[2-morpholin-4-yl-6-(2-morpholin-4-yl-ethoxy)-pyrimidin-4-yl]-urea] cannot be ordered by IC50: < 1000 nM for the first, < 1000 nM for the second.

`Cc1[nH]c2ccc(NC(=O)c3cc(OCCN)nc(N4CCOCC4)n3)cc2c1C` [Compound 273, 6-(2-Amino-ethoxy)-2-morpholin-4-yl-pyrimidine-4-carboxylic acid (2,3-dimethyl-1H-indol-5-yl)-amide] and `Cc1cc(C(=O)Nc2ccc3c(c2)c(C)c(C)n3O)nc(N2CCOCC2)n1` [Compound 319, 6-Methyl-2-morpholin-4-yl-pyrimidine-4-carboxylic acid (1-hydroxy-2,3-dimethyl-1H-indol-5-yl)-amide] cannot be ordered by IC50: < 1000 nM for the first, < 1000 nM for the second.

`CN1CCCc2ccc(NC(=O)c3cc(OCCN4CCOCC4)nc(N4CCOCC4)n3)cc21` [Compound 317, 2-Morpholin-4-yl-6-(2-morpholin-4-yl-ethoxy)-pyrimidine-4-carboxylic acid (1-methyl-1,2,3,4-tetrahydro-quinolin-7-yl)-amide] and `CN1CCCc2cc(NC(=O)c3cc(OCCN4CCOCC4)nc(N4CCOCC4)n3)ccc21` [Compound 318, 2-Morpholin-4-yl-6-(2-morpholin-4-yl-ethoxy)-pyrimidine-4-carboxylic acid (1-methyl-1,2,3,4-tetrahydro-quinolin-6-yl)-amide] cannot be ordered by IC50: < 1000 nM for the first, ≥ 1000 nM for the second.

`Cc1c(C)n(O)c2ccc(NC(=O)c3cc(OCCN4CCOCC4)nc(N4CCOCC4)n3)cc12` [Compound 320, 2-Morpholin-4-yl-6-(2-morpholin-4-yl-ethoxy)-pyrimidine-4-carboxylic acid (1-hydroxy-2,3-dimethyl-1H-indol-5-yl)-amide] and `CC1CCc2ccc(NC(=O)c3cc(OCCN4CCOCC4)nc(N4CCOCC4)n3)cc2N1C` (stereo not shown) [Compound 321, 2-Morpholin-4-yl-6-(2-morpholin-4-yl-ethoxy)-pyrimidine-4-carboxylic acid (1,2-dimethyl-1,2,3,4-tetrahydro-quinolin-7-yl)-amide] cannot be ordered by IC50: < 1000 nM for the first, ≥ 1000 nM for the second.

`O=C(Nc1ccc2[nH]c3c(c2c1)CCCC3)c1cc(OCCc2cccc[n+]2[O-])nc(N2CCOCC2)n1` [Compound 322, 2-Morpholin-4-yl-6-[2-(1-oxy-pyridin-2-yl)-ethoxy]-pyrimidine-4-carboxylic acid (6,7,8,9-tetrahydro-5H-carbazol-3-yl)-amide] and `O=C(Nc1ccc2[nH]c3c(c2c1)CCCC3)Nc1cc(OCCN2CCOCC2)nc(N2CCOCC2)n1` [Compound 325, 1-[2-Morpholin-4-yl-6-(2-morpholin-4-yl-ethoxy)-pyrimidin-4-yl]-3-(6,7,8,9-tetrahydro-5H-carbazol-3-yl)-urea] cannot be ordered by IC50: < 1000 nM for the first, < 1000 nM for the second.

`Nc1cccc(NC(=O)Nc2cc(OCCN3CCOCC3)nc(N3CCOCC3)n2)c1` [Compound 324, 1-(3-Amino-phenyl)-3-[2-morpholin-4-yl-6-(2-morpholin-4-yl-ethoxy)-pyrimidin-4-yl]-urea] and `CC(C)c1cccc(NC(=O)Nc2cc(OCCN3CCOCC3)nc(N3CCOCC3)n2)c1` [Compound 330, 1-(3-Isopropyl-phenyl)-3-[2-morpholin-4-yl-6-(2-morpholin-4-yl-ethoxy)-pyrimidin-4-yl]-urea] cannot be ordered by IC50: < 1000 nM for the first, < 1000 nM for the second.

`CN(CCO)c1cc(NC(=O)Nc2ccc3[nH]c4c(c3c2)CCCC4)nc(N2CCOCC2)n1` [Compound 326, 1-{6-[(2-Hydroxy-ethyl)-methyl-amino]-2-morpholin-4-yl-pyrimidin-4-yl}-3-(6,7,8,9-tetrahydro-5H-carbazol-3-yl)-urea] and `Cc1cc(NC(=O)Nc2cc(OCCN3CCOCC3)nc(N3CCOCC3)n2)ccc1C(C)C` [Compound 329, 1-(4-Isopropyl-3-methyl-phenyl)-3-[2-morpholin-4-yl-6-(2-morpholin-4-yl-ethoxy)-pyrimidin-4-yl]-urea] cannot be ordered by IC50: < 1000 nM for the first, < 1000 nM for the second.

`O=C(Nc1cccc(-n2cccn2)c1)Nc1cc(OCCN2CCOCC2)nc(N2CCOCC2)n1` [Compound 327, 1-[2-Morpholin-4-yl-6-(2-morpholin-4-yl-ethoxy)-pyrimidin-4-yl]-3-(3-pyrazol-1-yl-phenyl)-urea] and `O=C(Nc1cccc(-n2ccnc2)c1)Nc1cc(OCCN2CCOCC2)nc(N2CCOCC2)n1` [Compound 328, 1-(3-Imidazol-1-yl-phenyl)-3-[2-morpholin-4-yl-6-(2-morpholin-4-yl-ethoxy)-pyrimidin-4-yl]-urea] cannot be ordered by IC50: ≥ 1000 nM for the first, ≥ 1000 nM for the second.
